Like-named read-outs stand apart in the source and are kept apart here.
Target: His-Tagged hOGA (human O-GlcNAcase) (Homo sapiens (Human), UniProt O60502)
Experiment: Human O-GlcNAcase enzyme inhibition assay (Example B01)
Format: biochemical
Conditions: for IC50: OGA enzyme inhibition assay, activity range classes

Chain of His-Tagged hOGA (human O-GlcNAcase) (O60502 whole entry): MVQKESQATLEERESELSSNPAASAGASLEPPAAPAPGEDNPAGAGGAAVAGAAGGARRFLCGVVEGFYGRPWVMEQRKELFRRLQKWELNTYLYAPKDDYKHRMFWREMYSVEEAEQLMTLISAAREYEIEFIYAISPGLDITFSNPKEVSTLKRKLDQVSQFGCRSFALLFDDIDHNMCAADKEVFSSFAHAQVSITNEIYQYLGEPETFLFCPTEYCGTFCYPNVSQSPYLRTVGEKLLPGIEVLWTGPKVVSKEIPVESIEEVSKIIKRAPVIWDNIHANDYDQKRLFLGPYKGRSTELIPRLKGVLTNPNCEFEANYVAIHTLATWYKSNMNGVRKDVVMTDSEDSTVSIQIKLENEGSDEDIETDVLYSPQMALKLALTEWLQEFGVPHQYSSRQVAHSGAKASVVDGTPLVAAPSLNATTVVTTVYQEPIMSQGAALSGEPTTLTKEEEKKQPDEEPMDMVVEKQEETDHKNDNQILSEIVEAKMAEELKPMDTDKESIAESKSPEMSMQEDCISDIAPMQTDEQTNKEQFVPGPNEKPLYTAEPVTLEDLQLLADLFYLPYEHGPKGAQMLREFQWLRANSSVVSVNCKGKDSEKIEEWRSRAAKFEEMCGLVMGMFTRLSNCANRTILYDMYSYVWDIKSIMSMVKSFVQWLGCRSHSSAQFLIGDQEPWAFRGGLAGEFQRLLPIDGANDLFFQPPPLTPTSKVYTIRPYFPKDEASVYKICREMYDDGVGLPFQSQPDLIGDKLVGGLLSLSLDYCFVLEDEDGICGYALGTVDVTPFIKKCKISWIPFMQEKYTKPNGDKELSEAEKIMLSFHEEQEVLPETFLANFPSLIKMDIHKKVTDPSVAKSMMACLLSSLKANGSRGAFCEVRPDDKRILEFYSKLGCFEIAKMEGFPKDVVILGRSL

Question: `C[C@@H](c1ccc2c(c1)OCCO2)N1CCN(c2ncc(C(=O)N3CCC(O)CC3)s2)CC1` (single isomer, unassigned) [Example 81, (/?)-(2-(4-(1-(2,3-Dihydrobenzorbin,41dioxin-6-yl)ethyl)piperazin-1-yl)thiazol-5-yl)(4-hydroxypiperidin-1-yl)methanone or (S)-(2-(4-(1-(2,3-Dihydrobenzorbin,41dioxin-6-yl)ethyl)piperazin-1-yl)thiazol-5-yl)(4-hydroxypiperidin-1-yl)methanone] was tested. Which IC50 (read-out: OGA IC50) did it give?
Answer: < 5e-08 M

Question: Which “OGA inhibitor activity, in words” value does the source give for `CC(O)c1cnc(N2CCN([C@@H](C)c3ccc4c(c3)OCO4)CC2)nc1` (stereo in doubt) [Example 168, 1-(2-(4-((S)-1-(benzo[dl]1,31dioxol-5-yl)ethyl)piperazin-1-yl)pyrimidin-5-yl)ethan-1-ol] here?
Answer: very potent OGA inhibitors

Question: How did the IC50 (OGA IC50 (M)) turn out when `CCNC(=O)c1cnc(N2CCN([C@@H](C)c3ccc4c(c3)OCO4)CC2)s1` (single isomer, unassigned) [Example 60] was run?
Answer: 5e-08 to 2e-07 M
